Data taken from PubChem BioAssay AID248 (DTP/NCI, 2004).
Where “and” joins values, the source holds several entries; their conditions need not be identical. Equal values may be shown once. Toxic doses and inconclusive results are not listed. No stated cut-off is given here; in the data, active means T/C of 150% or more; inactive means T/C below 125%.

Test system: L1210 leukemia ip in BDF1 mice, survival T/C
Test: NCI In Vivo Anticancer Drug Screen. Data for tumor model L1210 Leukemia (intraperitoneal) in B6D2F1 (BDF1) mice
Settings: endpoint: mean survival time, higher = longer survival
Summary of the method: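 Mice bearing the transplanted tumor received compound or vehicle. Survival of the treated group was divided by that of the vehicle-treated control group to give the ratio.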

[1] = dose: 200.0 mg/kg/injection, schedule: Q04DX003 (ip), vehicle: Klucel (hydroxypropylcellulose) (HPC)
[2] = dose: 100.0 mg/kg/injection, schedule: Q01DX009 (ip), vehicle: saline with Tween-80
[3] = dose: 200.0 mg/kg/injection, schedule: Q01DX009 (ip), vehicle: saline with Tween-80
[4] = dose: 100.0 mg/kg/injection, schedule: Q04DX003 (ip), vehicle: saline with Tween-80
[5] = dose: 200.0 mg/kg/injection, schedule: Q04DX003 (ip), vehicle: saline with Tween-80
[6] = dose: 400.0 mg/kg/injection, schedule: Q04DX003 (ip), vehicle: saline with Tween-80
[7] = dose: 25.0 mg/kg/injection, schedule: Q04DX003 (ip), vehicle: saline with Tween-80
[8] = dose: 100.0 mg/kg/injection, schedule: Q04DX003 (ip), vehicle: Klucel (hydroxypropylcellulose) (HPC)
[9] = dose: 400.0 mg/kg/injection, schedule: Q04DX003 (ip), vehicle: Klucel (hydroxypropylcellulose) (HPC)

Measured: T/C

CCOC(=O)c1c(/N=C/c2ccc(N(C)C)cc2)sc2c1CCCC2
inactive: dose: 100.0 mg/kg/injection, schedule: Q04DX002 (ip), vehicle: Klucel (hydroxypropylcellulose) (HPC) 107 % of control | dose: 200.0 mg/kg/injection, schedule: Q04DX002 (ip), vehicle: Klucel (hydroxypropylcellulose) (HPC) 100 % of control | dose: 400.0 mg/kg/injection, schedule: Q04DX002 (ip), vehicle: Klucel (hydroxypropylcellulose) (HPC) 104 % of control

C1CN(SSN2CCOCC2)CCO1
inactive: dose: 12.5 mg/kg/injection, schedule: Q04DX003 (ip), vehicle: Klucel (hydroxypropylcellulose) (HPC) 89 % of control | dose: 25.0 mg/kg/injection, schedule: Q04DX003 (ip), vehicle: Klucel (hydroxypropylcellulose) (HPC) 110 % of control | dose: 50.0 mg/kg/injection, schedule: Q04DX003 (ip), vehicle: Klucel (hydroxypropylcellulose) (HPC) 89 % of control | [1] 102 % of control

c1ccc2c(C(CCN3CCCCC3)CNC3=NCCN3)cccc2c1 (stereo not drawn)
inactive: dose: 5.0 mg/kg/injection, schedule: Q04DX003 (ip), vehicle: saline with Tween-80 96 % of control | dose: 10.0 mg/kg/injection, schedule: Q04DX003 (ip), vehicle: saline with Tween-80 105 % of control | dose: 20.0 mg/kg/injection, schedule: Q04DX003 (ip), vehicle: saline with Tween-80 98 % of control

CC1(C(=O)O)CCCC1C(CCC(=O)O)C(=O)O (stereo not drawn)
inactive: dose: 100.0 mg/kg/injection, schedule: Q01DX001 (ip), vehicle: saline 97 % of control | dose: 200.0 mg/kg/injection, schedule: Q01DX001 (ip), vehicle: saline 95 % of control | dose: 400.0 mg/kg/injection, schedule: Q01DX001 (ip), vehicle: saline 92 % of control

CCOC(CNC(=O)c1ccc(S(=O)(=O)F)cc1)OCC
inactive: dose: 100.0 mg/kg/injection, schedule: Q04DX003 (ip), vehicle: alcohol 107 % of control | dose: 200.0 mg/kg/injection, schedule: Q04DX003 (ip), vehicle: alcohol 101 % of control | dose: 400.0 mg/kg/injection, schedule: Q04DX003 (ip), vehicle: alcohol 98 % of control

CCOc1ccc(NC(=S)NC(=O)c2ccccc2F)cc1
inactive: dose: 25.0 mg/kg/injection, schedule: Q01DX009 (ip), vehicle: saline with Tween-80 92 % of control | dose: 50.0 mg/kg/injection, schedule: Q01DX009 (ip), vehicle: saline with Tween-80 104 % of control | [2] 87 % of control | [3] 87 % of control

Cc1ccc(S(=O)(=O)Nc2ccccc2SSc2ccccc2NS(=O)(=O)c2ccc(C)cc2)cc1
inactive: [2] 97 % of control | [4] 101 % of control | [3] 97 % of control | [5] 97 % of control | dose: 400.0 mg/kg/injection, schedule: Q01DX009 (ip), vehicle: saline with Tween-80 90 % of control | [6] 95 % of control

O=c1ccs[nH]1
inactive: dose: 12.5 mg/kg/injection, schedule: Q04DX003 (ip), vehicle: saline with Tween-80 106 % of control | [7] 98 % of control

COc1cccc(C)c1NC1=NCCO1
inactive: dose: 1.56 mg/kg/injection, schedule: Q01DX009 (ip), vehicle: saline with Tween-80 97 % of control | dose: 1.56 mg/kg/injection, schedule: Q04DX003 (ip), vehicle: saline with Tween-80 97 % of control | dose: 3.13 mg/kg/injection, schedule: Q01DX009 (ip), vehicle: saline with Tween-80 116 % of control | dose: 3.13 mg/kg/injection, schedule: Q04DX003 (ip), vehicle: saline with Tween-80 100 % of control | dose: 6.25 mg/kg/injection, schedule: Q01DX009 (ip), vehicle: saline with Tween-80 101 % of control | dose: 6.25 mg/kg/injection, schedule: Q04DX003 (ip), vehicle: saline with Tween-80 100 % of control and 101 % of control | [7] 96 % of control

CCCCCCCCCCCCCCCCc1ccc(CCCC(=O)O)cc1
inactive: [8] 91 % of control | [1] 92 % of control | [9] 91 % of control

COc1ccccc1N=Nc1c(O)n(-c2ccc(C)cc2)c(=S)n(-c2ccc(C)cc2)c1=O
inactive: dose: 50.0 mg/kg/injection, schedule: Q01DX001 (ip), vehicle: Klucel (hydroxypropylcellulose) (HPC) 86 % of control | dose: 100.0 mg/kg/injection, schedule: Q01DX001 (ip), vehicle: Klucel (hydroxypropylcellulose) (HPC) 89 % of control | dose: 200.0 mg/kg/injection, schedule: Q01DX001 (ip), vehicle: Klucel (hydroxypropylcellulose) (HPC) 102 % of control

CC(C)CCC[C@@H](C)[C@H]1CC[C@H]2[C@@H]3CC=C4C[C@@H](OC(=O)Cc5ccc(N(CCCl)CCCl)cc5)CC[C@]4(C)[C@H]3CC[C@]12C
inactive: dose: 50.0 mg/kg/injection, schedule: Q01DX001 (sc), vehicle: steriod suspending solution 110 % of control | dose: 50.0 mg/kg/injection, schedule: Q01DX009 (oral), vehicle: saline 98 % of control | dose: 100.0 mg/kg/injection, schedule: Q01DX001 (sc), vehicle: steriod suspending solution 96 % of control | dose: 100.0 mg/kg/injection, schedule: Q01DX009 (oral), vehicle: other 121 % of control | dose: 100.0 mg/kg/injection, schedule: Q01DX009 (oral), vehicle: saline 98 % of control | dose: 100.0 mg/kg/injection, schedule: Q01DX009 (sc), vehicle: other 109 % of control | dose: 200.0 mg/kg/injection, schedule: Q01DX001 (sc), vehicle: steriod suspending solution 100 % of control | dose: 200.0 mg/kg/injection, schedule: Q01DX009 (oral), vehicle: saline 102 % of control | dose: 200.0 mg/kg/injection, schedule: Q01DX009 (sc), vehicle: other 111 % of control | dose: 250.0 mg/kg/injection, schedule: Q01DX015 (ip), vehicle: steriod suspending solution 95 % of control | dose: 400.0 mg/kg/injection, schedule: Q01DX001 (sc), vehicle: steriod suspending solution 115 % of control | dose: 400.0 mg/kg/injection, schedule: Q01DX009 (oral), vehicle: other 116 % of control | dose: 400.0 mg/kg/injection, schedule: Q01DX009 (oral), vehicle: saline 91 % of control | dose: 400.0 mg/kg/injection, schedule: Q01DX009 (sc), vehicle: other 106 % of control | dose: 400.0 mg/kg/injection, schedule: Q01DX015 (ip), vehicle: steriod suspending solution 111 % of control | dose: 800.0 mg/kg/injection, schedule: Q01DX009 (oral), vehicle: other 98 % of control | dose: 800.0 mg/kg/injection, schedule: Q01DX009 (oral), vehicle: saline 96 % of control

CCOC(=O)N(OC(C)=O)P(=O)(N1CC1)N1CC1
inactive: dose: 100.0 mg/kg/injection, schedule: Q04DX002 (ip), vehicle: saline 100 % of control | dose: 200.0 mg/kg/injection, schedule: Q04DX002 (ip), vehicle: saline 100 % of control | dose: 400.0 mg/kg/injection, schedule: Q04DX002 (ip), vehicle: saline 104 % of control

Nc1ncnc2c1ncn2CCCN1C(=O)c2ccccc2C1=O
inactive: [4] 96 % of control | [5] 93 % of control | [6] 89 % of control

COc1ccc(C2=CCCC2)cc1
inactive: dose: 100.0 mg/kg/injection, schedule: Q01DX001 (ip), vehicle: carboxymethylcellulose (CMC) 91 % of control | dose: 100.0 mg/kg/injection, schedule: Q01DX009 (ip), vehicle: Klucel (hydroxypropylcellulose) (HPC) 89 % of control | [8] 96 % of control | dose: 200.0 mg/kg/injection, schedule: Q01DX001 (ip), vehicle: carboxymethylcellulose (CMC) 94 % of control | dose: 200.0 mg/kg/injection, schedule: Q01DX009 (ip), vehicle: Klucel (hydroxypropylcellulose) (HPC) 102 % of control | [1] 101 % of control | dose: 400.0 mg/kg/injection, schedule: Q01DX001 (ip), vehicle: carboxymethylcellulose (CMC) 96 % of control | dose: 400.0 mg/kg/injection, schedule: Q01DX009 (ip), vehicle: Klucel (hydroxypropylcellulose) (HPC) 89 % of control | [9] 102 % of control
